Data published in US8791132B2, “Compounds and methods for treatment of hypertension” (Medivation Technologies, Inc., priority 2011, dated 2014).
Where two headings read alike, the source gives them in different places.

Experiments:
[1] = biological target: T1, human recombinant adrenergic α2A receptor (Homo sapiens, UniProt P08913); experiment: Radioligand binding, adrenergic α2A ([3H]MK-912)
T1 construct: expressed in transfected cells; host or cells: insect Sf9 cells
T1 sequence (P08913 1-465): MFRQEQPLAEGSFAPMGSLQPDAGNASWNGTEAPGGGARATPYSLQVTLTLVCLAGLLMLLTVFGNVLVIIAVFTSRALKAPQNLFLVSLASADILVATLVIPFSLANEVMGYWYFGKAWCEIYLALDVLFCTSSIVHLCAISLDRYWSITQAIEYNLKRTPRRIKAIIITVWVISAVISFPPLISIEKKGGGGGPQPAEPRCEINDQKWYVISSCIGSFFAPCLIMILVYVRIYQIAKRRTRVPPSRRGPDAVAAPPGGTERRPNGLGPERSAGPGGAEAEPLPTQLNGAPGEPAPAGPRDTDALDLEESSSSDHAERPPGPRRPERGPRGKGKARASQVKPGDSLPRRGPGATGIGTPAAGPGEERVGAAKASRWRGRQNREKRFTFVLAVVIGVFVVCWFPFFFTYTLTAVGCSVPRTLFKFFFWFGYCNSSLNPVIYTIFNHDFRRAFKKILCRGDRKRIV
Experimental: To evaluate in radioligand binding assays the activity of compounds of the invention, human recombinant adrenergic α2A receptor expressed in insect Sf9 cells (Uhlen, S. et al, J. Pharmacol. Exp. Ther. 271:1558, 1994) in a modified Tris-HCl buffer (50 mM Tris-HCl, pH 7.4, 12.5 mM MgCl2, 2 mM EDTA) was used. Compounds of invention were incubated with 1 nM [^3H]MK-912 for 60 min at 25° C. MK912 is (2S-trans)-1,3,4,5′,6,6′,7,12b-octahydro-1′,3′-dimethyl-spiro[2H-benzofuro[2,3-a]quinolizine-2,4′(1′H)-pyrimidin]-2′(3′H)-one hydrochloride. Non-specific binding was estimated in the presence of 10 μM WB-4101 (2-(2,6-Dimethoxyphenoxyethyl)aminomethyl-1,4-benzodioxane hydrochloride). Receptor proteins were filtered and washed, the filters were then counted to determine [^3H]MK-912 specifically bound. […] Compounds of the invention were tested in this biochemical assay and percent inhibition of specific binding was determined. Biochemical assay results are presented as the percent inhibition of specific binding in Table B1.

[2] = biological target: T2, rat adrenergic α1B receptor (Rattus norvegicus, UniProt P15823); experiment: Radioligand binding, adrenergic α1B ([3H]Prazosin)
T2 construct: rat adrenergic α1B receptor obtained from Wistar Rat liver; from tissue; host or cells: Wistar rat liver
T2 sequence (P15823 1-515): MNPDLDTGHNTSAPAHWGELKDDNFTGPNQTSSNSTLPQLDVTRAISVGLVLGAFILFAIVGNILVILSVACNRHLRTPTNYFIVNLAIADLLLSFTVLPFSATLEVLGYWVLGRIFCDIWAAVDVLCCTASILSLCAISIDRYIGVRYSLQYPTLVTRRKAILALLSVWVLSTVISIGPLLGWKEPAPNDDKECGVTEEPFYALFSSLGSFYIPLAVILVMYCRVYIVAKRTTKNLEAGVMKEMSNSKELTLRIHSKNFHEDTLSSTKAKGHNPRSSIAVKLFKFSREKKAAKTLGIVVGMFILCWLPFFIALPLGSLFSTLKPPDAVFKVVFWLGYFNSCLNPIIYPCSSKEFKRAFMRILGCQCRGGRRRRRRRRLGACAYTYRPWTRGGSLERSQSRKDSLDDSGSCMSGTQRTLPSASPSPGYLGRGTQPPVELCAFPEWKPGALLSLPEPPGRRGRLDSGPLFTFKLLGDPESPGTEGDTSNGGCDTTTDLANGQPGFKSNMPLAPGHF
Experimental: To evaluate in radioligand binding assays the activity of compounds of the invention, rat adrenergic α1B receptor obtained from Wistar Rat liver (Garcia-S'ainz, J. et al, Biochem. Biophys. Res. Commun. 186:760, 1992; Michel, A. et al, Br. J. Pharmacol. 98:883, 1989) in a modified Tris-HCl buffer (50 mM Tris-HCl buffer, pH 7.4, 0.5 mM EDTA) was used. Compounds of the invention were incubated with 0.25 nM [^3H]Prazosin for 60 min at 25° C. Non-specific binding was estimated in the presence of 10 μM phentolamine. Receptor proteins were filtered and washed, the filters were then counted to determine [^3H]Prazosin specifically bound. […] Compounds of the invention were tested in this biochemical assay and percent inhibition of specific binding was determined. Biochemical assay results are presented as the percent inhibition of specific binding in Table B1.

[3] = biological target: T3, human recombinant adrenergic α2B receptor (Homo sapiens, UniProt P18089); experiment: Radioligand binding, adrenergic α2B ([3H]Rauwolscine); conditions: for Percentage inhibition of ligand binding, Adrenergic α2B / Percentage inhibition of ligand binding, Adrenergic α2B (0.03 μM) / inhibition at 0.03 µM: [3H]Rauwolscine; for Percentage inhibition of ligand binding, Adrenergic α2B / Percentage inhibition of ligand binding, Adrenergic α2B (0.03 μM): 0.03 µM
T3 construct: expressed in transfected cells; host or cells: CHO-K1
T3 sequence (P18089 1-450): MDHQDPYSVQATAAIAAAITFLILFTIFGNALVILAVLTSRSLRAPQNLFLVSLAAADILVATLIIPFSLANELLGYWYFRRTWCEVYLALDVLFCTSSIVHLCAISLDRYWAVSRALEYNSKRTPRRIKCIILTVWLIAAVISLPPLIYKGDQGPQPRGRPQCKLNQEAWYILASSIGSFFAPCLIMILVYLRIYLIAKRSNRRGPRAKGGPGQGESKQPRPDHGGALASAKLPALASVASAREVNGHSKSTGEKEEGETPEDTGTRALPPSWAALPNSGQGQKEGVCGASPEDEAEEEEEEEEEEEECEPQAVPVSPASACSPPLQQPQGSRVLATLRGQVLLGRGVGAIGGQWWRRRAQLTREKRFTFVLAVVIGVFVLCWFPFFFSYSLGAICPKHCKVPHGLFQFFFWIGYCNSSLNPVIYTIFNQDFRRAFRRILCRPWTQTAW
Experimental: To evaluate in radioligand binding assays the activity of compounds of the invention, human recombinant adrenergic α2B receptor expressed in Chinese hamster ovary (CHO) K1 cells (Uhlen, S. et al, Eur. J. Pharmacol. 343(1):93, 1998) in a modified Tris-HCl buffer (50 mM Tris-HCl, pH 7.4, 12.5 mM MgCl2, 1 mM EDTA, 0.2% BSA) was used. Compounds of the invention were incubated with 2.5 nM [3H]Rauwolscine for 60 min at 25° C. Non-specific binding was estimated in the presence of 10 μM Prazosin. Receptor proteins were filtered and washed, the filters were then counted to determine [3H]Rauwolscine specifically bound. […] Compounds of the invention were tested in this biochemical assay and percent inhibition of specific binding was determined. Biochemical assay results are presented as the percent inhibition of specific binding in Table B1.

[4] = compound at 0.1 μM, [3H]Prazosin, repeat assays, each datapoint shown, 0.1 µM
[5] = compound at 0.1 μM, [3H]Prazosin, repeat datapoints each shown, 0.1 µM
[6] = compound at 0.03 μM, repeat assays, each datapoint shown
[7] = compound at 0.1 μM, [3H]Prazosin, repeat assays, each datapoint shown, read-out: Percentage inhibition of ligand binding, Adrenergic α1B
[8] = read-out: Percentage inhibition of ligand binding, Adrenergic α2A (0.1 μM), compound at 0.1 μM, [3H]MK-912, repeat datapoints each shown
[9] = read-out: Percentage inhibition of ligand binding, Adrenergic α1B (0.1 μM), compound at 0.1 μM, [3H]Prazosin, repeat datapoints each shown
[10] = compound at 0.1 μM, [3H]MK-912, repeat datapoints each shown, 0.1 µM
[11] = compound at 0.03 μM, repeat datapoints each shown
[12] = read-out: Percentage inhibition of ligand binding, Adrenergic α2B (0.03 μM), compound at 0.03 μM, repeat datapoints each shown

## Cc1ccc2c(c1)c1c(n2CC(O)c2ccc(C(=O)N(C)C)cc2)CCN(C)C1 (single isomer, unassigned) [52a]
[1]; compound at 0.1 μM, [3H]MK-912, repeat assays, each datapoint shown, 0.1 µM
  Percentage inhibition of ligand binding, Adrenergic α2A: 5%
[2]; [4]
  Percentage inhibition of ligand binding, Adrenergic α1B: 9%

## Cc1ccc2c(c1)c1c(n2CC(O)c2ccc(F)cc2)CCN(C)C1 (stereo not drawn) [30a]
[2]; [4]
  Percentage inhibition of ligand binding, Adrenergic α1B: 57%

## CN1CCc2c(c3cc(Cl)ccc3n2CC(C)(O)c2ccc(C(F)(F)F)nc2)C1 (single isomer, unassigned) [143a]
[2]; [5]
  Percentage inhibition of ligand binding, Adrenergic α1B (0.1 μM): 43%

## Cc1ccc2c(c1)c1c(n2CC(O)c2ccncc2)CCN2CCCC12 (stereo not drawn) [129b]
[2]; [5]
  Percentage inhibition of ligand binding, Adrenergic α1B (0.1 μM): 69%

## Cc1ccc2c(c1)c1c(n2CC(OC(=O)C(N)C(C)C)c2ccncc2)CCN(C)C1 (single isomer, unassigned) [25a]
[3]; [6]
  Percentage inhibition of ligand binding, Adrenergic α2B: 54%
[2]; [4]
  Percentage inhibition of ligand binding, Adrenergic α1B: 4%

## CN1CCc2c(n(CC(O)c3ccncc3)c3ccc(Cl)cc23)C1 (stereo not drawn) [compound 41]
[2]; [7]
  inhibition at 0.1 µM: 57%

## Cc1ccc2c(c1)c1c(n2CC(c2ccncc2)N(C)C)CCN(C)C1 (stereo not drawn) [150b]
[1]; [8]
  inhibition at 0.1 µM: 5%
[2]; [9]
  inhibition at 0.1 µM: 7%

## Cc1ccc2c(c1)c1c(n2CC(O)c2cn[nH]c2)CCN(C)C1 (single isomer, unassigned) [II-106b]
[1]; [10]
  Percentage inhibition of ligand binding, Adrenergic α2A (0.1 μM): 8%
[2]; [5]
  Percentage inhibition of ligand binding, Adrenergic α1B (0.1 μM): 31%

## Cc1ccc2c(c1)c1c(n2CC(O)c2ccc(C#N)cc2)CCN(C)C1 (single isomer, unassigned) [142a]
[3]; [11]
  Percentage inhibition of ligand binding, Adrenergic α2B (0.03 μM): 71%
[2]; [9]
  inhibition at 0.1 µM: 68%

## Cc1ccc2c(c1)c1c(n2CC(O)c2ccncc2)C(C)N2CCC1C2 (stereo not drawn) [compound 38]
[2]; [7]
  inhibition at 0.1 µM: 20%

## Cc1ccc2c(c1)c1c(n2CC(O)c2cn[nH]c2)CCN(C)C1 (single isomer, unassigned) [II-106a]
[2]; [9]
  inhibition at 0.1 µM: 25%

## Cc1ccc2c(c1)c1c(n2CC(N=[N+]=[N-])c2ccncc2)CCN(C)C1 (racemic) [V-1a, 5-(2-azido-2-(pyridin-4-yl)ethyl)-2,3,4,5-tetrahydro-2,8-dimethyl-1H-pyrido[4,3-b]indole]
[2]; [5]
  Percentage inhibition of ligand binding, Adrenergic α1B (0.1 μM): 20%

## CN1CCc2c(c3cc(Cl)ccc3n2CC(O)c2cccnc2)C1 (stereo not drawn) [compound 7]
[3]; compound at 0.03 μM, repeat assays, each datapoint shown, read-out: Percentage inhibition of ligand binding, Adrenergic α2B
  inhibition at 0.03 µM: 59%
[2]; [7]
  inhibition at 0.1 µM: 35%

## Cc1ccc2c(c1)c1c(n2CC(OC(=O)C(N)C(C)C)c2ccncc2)CCN(C)C1 (single isomer, unassigned) [25b]
[3]; [6]
  Percentage inhibition of ligand binding, Adrenergic α2B: 75%
[2]; [4]
  Percentage inhibition of ligand binding, Adrenergic α1B: 12%

## Cc1cnc2c(c1)c1c(n2CC(N)c2ccc(C#N)cc2)CCN(C)C1 (single isomer, unassigned) [159a]
[3]; [12]
  inhibition at 0.03 µM: 37%
[2]; [5]
  Percentage inhibition of ligand binding, Adrenergic α1B (0.1 μM): −2%

## Cc1ccc(CCn2c3c(c4cc(Cl)cnc42)C2CCCN2CC3)cn1 (single isomer, unassigned) [137a]
[3]; [11]
  Percentage inhibition of ligand binding, Adrenergic α2B (0.03 μM): 104%
[2]; [5]
  Percentage inhibition of ligand binding, Adrenergic α1B (0.1 μM): 94%

## Cc1ccc2c(c1)c1c(n2CC(c2ccncc2)N2CCCC2)CCN(C)C1 (single isomer, unassigned) [152b]
[2]; [5]
  Percentage inhibition of ligand binding, Adrenergic α1B (0.1 μM): 7%

## Cc1ccc2c(c1)c1c(n2CC(C)(O)c2cccnc2)CCN(C)C1C (single isomer, unassigned) [II-152d]
[1]; [10]
  Percentage inhibition of ligand binding, Adrenergic α2A (0.1 μM): 8%
[2]; [5]
  Percentage inhibition of ligand binding, Adrenergic α1B (0.1 μM): 5%

## Cc1ccc2c(c1)c1c(n2C(C)C(O)c2ccncc2)CCN(C)C1 (stereo not drawn) [II-98a]
[1]; 0.1 μM compound, read-out: Percentage inhibition of ligand binding, Adrenergic α2A
  inhibition at 0.1 µM: 12%
[2]; 0.1 μM compound
  Percentage inhibition of ligand binding, Adrenergic α1B: 33%

## Cc1ccc2c(c1)c1c(n2CC(C)(O)c2ccncc2)CCN(C)CC1 (stereo not drawn) [II-134b]
[1]; compound at 0.1 μM, [3H]MK-912, repeat datapoints each shown
  Percentage inhibition of ligand binding, Adrenergic α2A (0.1 μM): 6%
[2]; compound at 0.1 μM, [3H]Prazosin, repeat datapoints each shown
  Percentage inhibition of ligand binding, Adrenergic α1B (0.1 μM): 65%

## Cc1ccc2c(c1)c1c(n2CC(C)(O)c2cccnc2)CC[N+](C)([O-])C1 (stereo not drawn) [II-105, 1-(2,8-dimethyl-2-oxy-1,2,3,4-tetrahydro-pyrido[4,3-b]indol-5-yl)-2-pyridin-3-yl-propan-2-ol]
[3]; 0.1 μM compound, read-out: Percentage inhibition of ligand binding, Adrenergic α2B
  inhibition at 0.1 µM: 27%
[3]; read-out: Ki α2B
  Ki: 152 nM
[2]; 0.1 μM compound, read-out: Percentage inhibition of ligand binding, Adrenergic α1B
  inhibition at 0.1 µM: 5%

## Cc1ccc2c(c1)c1c(n2CC(O)c2ccncc2)CCN2CCCC12 (stereo not drawn) [129a]
[1]; [8]
  inhibition at 0.1 µM: 46%
[2]; [9]
  inhibition at 0.1 µM: 73%

## Cc1ccc2c(c1)c1c(n2CC(C)(O)c2ccc(C)nc2)CN(C)CC1 (stereo not drawn) [196b]
[3]; [12]
  inhibition at 0.03 µM: -2%
[2]; [9]
  inhibition at 0.1 µM: 37%
